Laboratory results from patent publication US12098119B2, “Compound used as SIRT6 small-molecule allosteric activator and pharmaceutical composition thereof” (Nutshell BioTech (Shanghai) Co., Ltd., priority 2017, dated 2024).

What was measured:
Assay type in all cases: cell-based
[1] = system: H3K9Ac and H3K56Ac in HT29 cells; experiment: Western blot of SIRT6 deacetylation substrates in HT29 cells
Text: (§1) A Western Blot experimental method is used to detect the effect of SIRT6 small molecule allosteric activator as active ingredients in Table 1 and Table 2 for SIRT6 deacetylated active substrates H3K9 AC and H3K56 AC in cell cells.
(§2) HEK-293 T cells, Bel7405 cells, PLC/PFR/5 cells, Bel 7402 cells, HCT116 cells, HT29 cells, SW 480 cells, and HCT116 cells are test objects.
(§3) Step 1: the compound mother liquor (solvent is DMSO) listed in Table 1 and Table 2, the gradient concentration comprising 0.5 μmol/L, 1 μmol/L, 5 μmol/L, 10 μmol/L, 25 μmol/L and 50 μmol/L;
(§4) Step 3: the cell state was good after 24 hours, the fresh culture solution (2 mL) was replaced, and the mother liquor configured above is added to the cell culture solution of the experimental group according to the ratio of 1:1000; the same volume of DMSO (2 ul) is added to the cell culture solution of the control group;
(§5) Step 4: continue to culture for a certain time (12 hours, 24 hours, 48 hours or 60 hours).
(§6) 1) for each group of cells at the end of culture, the culture medium in each well is discarded and washed with 1*PBS once;
(§7) 2) add 150 μl SDS lysate containing bromophenol blue into each well, mix well and transfer to 1.5 ml EP tube respectively;
(§8) 3) store at 95° C. for 5 min, then on ice for 5 min, repeat three times;
(§9) 4) the supernatant is centrifuged at 12000×g for 5 min for Western blot detection.

[2] = system: H3K9Ac and H3K56Ac in SW480 cells; experiment: Western blot of SIRT6 deacetylation substrates in SW480 cells
Text: as §1, §2, §3, §4, §5, §6, §7, §8, §9

[3] = system: H3K9Ac and H3K56Ac in HCT116 cells; experiment: Western blot of SIRT6 deacetylation substrates in HCT116 cells
Text: as §1, §2, §3, §4, §5, §6, §7, §8, §9

For `C[C@@H]1COCCN1C(C)(C)C` [SOL-011], the “H3K9Ac and H3K56Ac (Western blot)” value ([1]; 10 μmol/L, 24 hours and 48 hours, FIG. 43) was “down regulated H3K9Ac and H3k56ac”, the “H3K9Ac and H3K56Ac (Western blot)” value ([1]; different concentrations, 48 hours, FIG. 46) was “down regulated H3K9Ac and H3k56ac” and the “H3K9Ac and H3K56Ac (Western blot)” value ([2]; 10 μmol/L, 24 hours and 48 hours, FIG. 44) was “can down regulate H3K9Ac and H3k56ac”. The “H3K9Ac and H3K56Ac (Western blot)” value ([2]; different concentrations, 48 hours, FIG. 47) was “down regulated H3K9Ac and H3k56ac”, the “H3K9Ac and H3K56Ac (Western blot)” value ([3]; CT116 cells, different concentrations, 48 hours, FIG. 45) was “down regulated H3K9Ac and h3k56ac” and the “H3K9Ac and H3K56Ac (Western blot)” value ([3]; HCT116 cells, 10 μmol/L, 24 hours and 48 hours, FIG. 42) was “down regulated H3K9Ac and H3k56ac”.
